The results in this text go back to ChEMBL document CHEMBL4680217, “Discovery of PROTAC BCL-X degraders as potent anticancer agents with low on-target platelet toxicity” (Eur J Med Chem, 2020).

For assay [1], the target named is Protein cereblon/Bcl-2-like protein 1 (Homo sapiens, UniProt Q07817+Q96SW2). Put plainly: Protac activity at CRBN/BCL-XL in human MOLT-4 cells assessed as induction of BCL-XL degradation by measuring remaining BCL-XL level at 50 nM measured after 16 hrs by immunoblotting analysis relative to control. It counts as cell-based. Background: In western blotting, separated proteins are transferred to a membrane and probed.

Assay [2] concerns the target Protein cereblon/Apoptosis regulator Bcl-2 (Homo sapiens) (UniProt P10415+Q96SW2). Description: Protac activity at CRBN/BCL2 in human MOLT-4 cells assessed as induction of BCL2 degradation at 50 nM measured after 16 hrs by immunoblotting analysis. It counts as cell-based.
The test system of assay [3] is MOLT-4. Description: Antiproliferative activity against human MOLT-4 cells assessed as reduction in cell viability measured after 48 hrs by MTS assay. It counts as functional, cell-based. To be noted: MOLT-4, 48 h. (Tetrazolium dyes change colour on reduction, which living cells bring about.)

Active and inactive are the calls of the source. The calls are words filed in the database; no cut-off is given here.

Chain of Protein cereblon/Bcl-2-like protein 1 (Q07817 whole entry, looked up): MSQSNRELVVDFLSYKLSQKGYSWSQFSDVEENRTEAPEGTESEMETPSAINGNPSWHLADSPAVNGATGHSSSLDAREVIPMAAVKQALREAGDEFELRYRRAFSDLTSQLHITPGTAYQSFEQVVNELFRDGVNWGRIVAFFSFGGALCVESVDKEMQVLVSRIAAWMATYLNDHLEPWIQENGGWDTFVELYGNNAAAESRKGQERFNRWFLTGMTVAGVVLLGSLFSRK
Chain of Protein cereblon/Bcl-2-like protein 1 (Q96SW2 whole entry, looked up): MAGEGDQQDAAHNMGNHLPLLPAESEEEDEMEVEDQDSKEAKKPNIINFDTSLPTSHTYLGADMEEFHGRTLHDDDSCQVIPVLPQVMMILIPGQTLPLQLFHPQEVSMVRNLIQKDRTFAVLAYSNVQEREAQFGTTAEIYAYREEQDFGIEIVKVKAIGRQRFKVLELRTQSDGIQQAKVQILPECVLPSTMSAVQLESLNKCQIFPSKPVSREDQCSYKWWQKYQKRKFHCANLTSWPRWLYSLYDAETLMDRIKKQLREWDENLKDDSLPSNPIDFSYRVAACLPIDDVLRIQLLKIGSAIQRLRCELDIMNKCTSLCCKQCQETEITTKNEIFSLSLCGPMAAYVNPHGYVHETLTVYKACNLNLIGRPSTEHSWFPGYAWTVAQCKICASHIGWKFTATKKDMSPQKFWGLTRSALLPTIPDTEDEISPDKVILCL
Chain of Protein cereblon/Apoptosis regulator Bcl-2 (Homo sapiens) (P10415 whole entry, looked up): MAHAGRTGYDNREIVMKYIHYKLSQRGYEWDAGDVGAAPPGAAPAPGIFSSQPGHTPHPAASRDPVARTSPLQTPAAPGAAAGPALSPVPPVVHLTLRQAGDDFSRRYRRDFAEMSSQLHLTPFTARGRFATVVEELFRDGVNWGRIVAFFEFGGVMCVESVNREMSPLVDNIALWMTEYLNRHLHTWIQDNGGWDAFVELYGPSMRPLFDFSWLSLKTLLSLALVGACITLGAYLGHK
Chain of Protein cereblon/Apoptosis regulator Bcl-2 (Homo sapiens) (Q96SW2 whole entry, looked up): as the sequence (Q96SW2 whole entry, looked up) above

Turning to `CN(CCCCCCCn1cc(COCCOCCOCCNc2cccc3c2C(=O)N([C@@H]2CCC(=O)NC2=O)C3=O)nn1)CC[C@H](CSc1ccccc1)Nc1ccc(S(=O)(=O)NC(=O)c2ccc(N3CCN(CC4=C(c5ccc(Cl)cc5)CCC(C)(C)C4)CC3)cc2)cc1S(=O)(=O)C(F)(F)F`, the Activity in assay [1] was found to be 24%. The outcome in assay [2] was inactive.

By IC50 is commonly meant the midpoint of a concentration-inhibition curve. For `CN(CCOCCOCCOCCOCCNc1cccc2c1C(=O)N([C@@H]1CCC(=O)NC1=O)C2=O)CC[C@H](CSc1ccccc1)Nc1ccc(S(=O)(=O)NC(=O)c2ccc(N3CCN(CC4=C(c5ccc(Cl)cc5)CCC(C)(C)C4)CC3)cc2)cc1S(=O)(=O)C(F)(F)F`, the Activity in assay [1] amounted to 5%. In addition, the result in assay [2] was inactive. Moreover, in assay [3], the IC50 is 19.3 nM.

Take `CC1(C)CCC(c2ccc(Cl)cc2)=C(CN2CCN(c3ccc(C(=O)NS(=O)(=O)c4ccc(N[C@H](CCN5CCN(C(=O)CCCCNc6cccc7c6C(=O)N([C@@H]6CCC(=O)NC6=O)C7=O)CC5)CSc5ccccc5)c(S(=O)(=O)C(F)(F)F)c4)cc3)CC2)C1`: the Activity in assay [1] stood at 81%. In assay [2], the outcome was inactive. Further, in assay [3], the IC50 was 346 nM.

As for `CC1(C)CCC(c2ccc(Cl)cc2)=C(CN2CCN(c3ccc(C(=O)NS(=O)(=O)c4ccc(N[C@H](CCN5CCN(C(=O)CCCCCNc6cccc7c6C(=O)N([C@@H]6CCC(=O)NC6=O)C7=O)CC5)CSc5ccccc5)c(S(=O)(=O)C(F)(F)F)c4)cc3)CC2)C1`, the Activity in assay [1] worked out at 63%. Moreover, in assay [2], the result was inactive. The half-maximal inhibitory concentration (IC50) in assay [3] came out at 518 nM.

With `CC1(C)CCC(c2ccc(Cl)cc2)=C(CN2CCN(c3ccc(C(=O)NS(=O)(=O)c4ccc(N[C@H](CCN5CCN(C(=S)NCCOCCOCCNc6cccc7c6C(=O)N([C@@H]6CCC(=O)NC6=O)C7=O)CC5)CSc5ccccc5)c(S(=O)(=O)C(F)(F)F)c4)cc3)CC2)C1` (racemic), in assay [1], the Activity came out at 76%. Besides, the result in assay [2] was inactive. Moreover, in assay [3], the IC50 was found to be 722 nM.

On to `CN(CC[C@H](CSc1ccccc1)Nc1ccc(S(=O)(=O)NC(=O)c2ccc(N3CCN(CC4=C(c5ccc(Cl)cc5)CCC(C)(C)C4)CC3)cc2)cc1S(=O)(=O)C(F)(F)F)C(=O)CCCn1cc(COCCOCCOCCNc2cccc3c2C(=O)N([C@@H]2CCC(=O)NC2=O)C3=O)nn1`, for which the Activity in assay [1] was 67%. In assay [2], the result was inactive. In addition, in assay [3], the 50% inhibitory concentration (IC50) amounted to 769 nM.

On to `CN(CCCCNc1cccc2c1C(=O)N([C@@H]1CCC(=O)NC1=O)C2=O)CC[C@H](CSc1ccccc1)Nc1ccc(S(=O)(=O)NC(=O)c2ccc(N3CCN(CC4=C(c5ccc(Cl)cc5)CCC(C)(C)C4)CC3)cc2)cc1S(=O)(=O)C(F)(F)F`, for which the Activity in assay [1] was found to be 40%. For the same compound, in assay [2], the outcome was inactive. Besides, in assay [3], the IC50 came out at 38.7 nM.

For the compound `CN(CC[C@H](CSc1ccccc1)Nc1ccc(S(=O)(=O)NC(=O)c2ccc(N3CCN(CC4=C(c5ccc(Cl)cc5)CCC(C)(C)C4)CC3)cc2)cc1S(=O)(=O)C(F)(F)F)C(=O)CCCCCCn1cc(COCCOCCOCCNc2cccc3c2C(=O)N([C@@H]2CCC(=O)NC2=O)C3=O)nn1`, in assay [1], the Activity was determined as 29%. Also, in assay [2], the outcome was inactive. In assay [3], the concentration for half-maximal inhibition (IC50) was 179 nM.

As for `CC1(C)CCC(c2ccc(Cl)cc2)=C(CN2CCN(c3ccc(C(=O)NS(=O)(=O)c4ccc(N[C@H](CCN5CCN(CCCCNc6cccc7c6C(=O)N([C@@H]6CCC(=O)NC6=O)C7=O)CC5)CSc5ccccc5)c(S(=O)(=O)C(F)(F)F)c4)cc3)CC2)C1`, the Activity in assay [1] turned out to be 20%. The result in assay [2] was inactive. For the same compound, the half-maximal inhibitory concentration (IC50) in assay [3] is 43 nM.

Take `CC1(C)CCC(c2ccc(Cl)cc2)=C(CN2CCN(c3ccc(C(=O)NS(=O)(=O)c4ccc(N[C@H](CCN5CCN(C(=O)COCCOCCNc6cccc7c6C(=O)N([C@@H]6CCC(=O)NC6=O)C7=O)CC5)CSc5ccccc5)c(S(=O)(=O)C(F)(F)F)c4)cc3)CC2)C1`: the Activity in assay [1] came to 20%. Further, the result in assay [2] was inactive. The IC50 in assay [3] was determined as 161 nM.

In the case of `CC1(C)CCC(c2ccc(Cl)cc2)=C(CN2CCN(c3ccc(C(=O)NS(=O)(=O)c4ccc(N[C@H](CCN5CCN(CCOCCNc6cccc7c6C(=O)N([C@@H]6CCC(=O)NC6=O)C7=O)CC5)CSc5ccccc5)c(S(=O)(=O)C(F)(F)F)c4)cc3)CC2)C1`, the Activity in assay [1] was 20%. In addition, the result in assay [2] was inactive. Also, the IC50 in assay [3] is 60.5 nM.

Turning to `CN(CC[C@H](CSc1ccccc1)Nc1ccc(S(=O)(=O)NC(=O)c2ccc(N3CCN(CC4=C(c5ccc(Cl)cc5)CCC(C)(C)C4)CC3)cc2)cc1S(=O)(=O)C(F)(F)F)C(=O)CCCCCCn1cc(COCCOCCNc2cccc3c2C(=O)N([C@@H]2CCC(=O)NC2=O)C3=O)nn1`, in assay [1], the Activity was 28%. Moreover, in assay [2], the outcome was inactive. Besides, the IC50 in assay [3] was 177 nM.

With `CN(CCCCCNc1cccc2c1C(=O)N([C@@H]1CCC(=O)NC1=O)C2=O)CC[C@H](CSc1ccccc1)Nc1ccc(S(=O)(=O)NC(=O)c2ccc(N3CCN(CC4=C(c5ccc(Cl)cc5)CCC(C)(C)C4)CC3)cc2)cc1S(=O)(=O)C(F)(F)F`, the Activity in assay [1] was found to be 47%. In addition, in assay [2], the result was inactive. Also, in assay [3], the IC50 is 60.9 nM.

For the compound `CC1(C)CCC(c2ccc(Cl)cc2)=C(CN2CCN(c3ccc(C(=O)NS(=O)(=O)c4ccc(N[C@H](CCN5CCN(C(=O)CCCCCCCNc6cccc7c6C(=O)N([C@@H]6CCC(=O)NC6=O)C7=O)CC5)CSc5ccccc5)c(S(=O)(=O)C(F)(F)F)c4)cc3)CC2)C1`, in assay [1], the Activity is 89%. Moreover, the result in assay [2] was inactive. The IC50 in assay [3] is > 2000 nM.

In the case of `CN(CCOCCOCCNc1cccc2c1C(=O)N([C@@H]1CCC(=O)NC1=O)C2=O)CC[C@H](CSc1ccccc1)Nc1ccc(S(=O)(=O)NC(=O)c2ccc(N3CCN(CC4=C(c5ccc(Cl)cc5)CCC(C)(C)C4)CC3)cc2)cc1S(=O)(=O)C(F)(F)F`, the Activity in assay [1] came out at 11%. The result in assay [2] was inactive. Moreover, in assay [3], the IC50 worked out at 35 nM.

`CC1(C)CCC(c2ccc(Cl)cc2)=C(CN2CCN(c3ccc(C(=O)NS(=O)(=O)c4ccc(N[C@H](CCN5CCN(CCCCCNc6cccc7c6C(=O)N([C@@H]6CCC(=O)NC6=O)C7=O)CC5)CSc5ccccc5)c(S(=O)(=O)C(F)(F)F)c4)cc3)CC2)C1`: in assay [1], the Activity is 45%. Also, in assay [2], the result was inactive. The IC50 in assay [3] was 100 nM.

Regarding `CC1(C)CCC(c2ccc(Cl)cc2)=C(CN2CCN(c3ccc(C(=O)NS(=O)(=O)c4ccc(N[C@H](CCN5CCN(C(=O)COCCOCCOCCNc6cccc7c6C(=O)N([C@@H]6CCC(=O)NC6=O)C7=O)CC5)CSc5ccccc5)c(S(=O)(=O)C(F)(F)F)c4)cc3)CC2)C1`, the Activity in assay [1] came to 21%. Moreover, the result in assay [2] was inactive. The IC50 in assay [3] came out at 211 nM.

For the compound `CC1(C)CCC(c2ccc(Cl)cc2)=C(CN2CCN(c3ccc(C(=O)NS(=O)(=O)c4ccc(N[C@H](CCN5CCN(C(=O)CCCCCCNc6cccc7c6C(=O)N([C@@H]6CCC(=O)NC6=O)C7=O)CC5)CSc5ccccc5)c(S(=O)(=O)C(F)(F)F)c4)cc3)CC2)C1`, the Activity in assay [1] was 101%. In assay [2], the result was inactive. In assay [3], the concentration for half-maximal inhibition (IC50) was > 2000 nM.

Consider `CN(CCCCCCNc1cccc2c1C(=O)N([C@@H]1CCC(=O)NC1=O)C2=O)CC[C@H](CSc1ccccc1)Nc1ccc(S(=O)(=O)NC(=O)c2ccc(N3CCN(CC4=C(c5ccc(Cl)cc5)CCC(C)(C)C4)CC3)cc2)cc1S(=O)(=O)C(F)(F)F`, for which, in assay [1], the Activity is 73%. The outcome in assay [2] was inactive. Moreover, the half-inhibitory concentration (IC50) in assay [3] turned out to be 147 nM.

As for `CC1(C)CCC(c2ccc(Cl)cc2)=C(CN2CCN(c3ccc(C(=O)NS(=O)(=O)c4ccc(N[C@H](CCN5CCN(CCOCCOCCNc6cccc7c6C(=O)N([C@@H]6CCC(=O)NC6=O)C7=O)CC5)CSc5ccccc5)c(S(=O)(=O)C(F)(F)F)c4)cc3)CC2)C1`, in assay [1], the Activity amounted to 13%. The result in assay [2] was inactive. In addition, the IC50 in assay [3] was determined as 41.4 nM.

Take `CN(CCCCCCCCNc1cccc2c1C(=O)N([C@@H]1CCC(=O)NC1=O)C2=O)CC[C@H](CSc1ccccc1)Nc1ccc(S(=O)(=O)NC(=O)c2ccc(N3CCN(CC4=C(c5ccc(Cl)cc5)CCC(C)(C)C4)CC3)cc2)cc1S(=O)(=O)C(F)(F)F`: the Activity in assay [1] worked out at 94%. Further, the result in assay [2] was inactive. In addition, in assay [3], the IC50 was > 2000 nM.

As for `CC1(C)CCC(c2ccc(Cl)cc2)=C(CN2CCN(c3ccc(C(=O)NS(=O)(=O)c4ccc(N[C@H](CCN5CCN(C(=O)CCCNc6cccc7c6C(=O)N([C@@H]6CCC(=O)NC6=O)C7=O)CC5)CSc5ccccc5)c(S(=O)(=O)C(F)(F)F)c4)cc3)CC2)C1`, in assay [1], the Activity worked out at 44%. Also, the result in assay [2] was inactive.

With `CN(CC[C@H](CSc1ccccc1)Nc1ccc(S(=O)(=O)NC(=O)c2ccc(N3CCN(CC4=C(c5ccc(Cl)cc5)CCC(C)(C)C4)CC3)cc2)cc1S(=O)(=O)C(F)(F)F)C(=O)CCCn1cc(COCCOCCNc2cccc3c2C(=O)N([C@@H]2CCC(=O)NC2=O)C3=O)nn1`, the Activity in assay [1] is 66%. Also, the outcome in assay [2] was inactive. In assay [3], the IC50 is 770 nM.

Take `CC1(C)CCC(c2ccc(Cl)cc2)=C(CN2CCN(c3ccc(C(=O)NS(=O)(=O)c4ccc(N[C@H](CCN5CCN(C(=O)COCCOCCOCCOCCNc6cccc7c6C(=O)N([C@@H]6CCC(=O)NC6=O)C7=O)CC5)CSc5ccccc5)c(S(=O)(=O)C(F)(F)F)c4)cc3)CC2)C1`: the Activity in assay [1] amounted to 11%. Moreover, the result in assay [2] was inactive. Also, the IC50 in assay [3] was 126 nM.

For `CC1(C)CCC(c2ccc(Cl)cc2)=C(CN2CCN(c3ccc(C(=O)NS(=O)(=O)c4ccc(N[C@H](CCN5CCN(CCCNc6cccc7c6C(=O)N([C@@H]6CCC(=O)NC6=O)C7=O)CC5)CSc5ccccc5)c(S(=O)(=O)C(F)(F)F)c4)cc3)CC2)C1` (mixture of isomers), in assay [1], the Activity was determined as 30%. Moreover, the result in assay [2] was inactive.
